Source: patent US11479546B2, “Antimalarial hexahydropyrimidine analogues” (UCB Biopharma SRL, priority 2018, dated 2022)

Tested on: Plasmodium falciparum 3D7
Experiment: P. falciparum 3D7 asexual blood stage assay, Assay Procedure Version 2 (SYBR green readout)
Type: cell-based
Conditions: Plasmodium falciparum, 3D7, Erythrocyte, 72 h, Version 2 of the assay procedure (asterisk *); 72 h incubation in infected erythrocytes; 50,000 nM to 15 nM
Description: Asexual Blood Stage Assay
The assay used to measure the effect of test compounds on a bloodstream stage of Plasmodium falciparum 3D7 strain employs SYBR green as the readout. This is a dye that binds to double stranded deoxyribonucleic acid (DNA) with a resulting increase in fluorescence, allowing detection of P. falciparum DNA in infected erythrocytes, and thereby providing a measure of parasite growth and propagation.
P. falciparum Culture Maintenance
Erythrocytes (A+blood) were prepared for both parasite culture and assay by washing 4 times with incomplete media (15.9 g RPMI 1640 (25 mM HEPES, L-glutamine), 1 g NaHCO3, 2 g glucose, 400 μL gentacin (500 mg/mL), 2 mL hypoxanthine solution (13.6 g/L in 0.1M NaOH pH 7.3) in 1 litre of media). The cells were centrifuged at 1800 g for 5 minutes, before decanting the supernatant and re-suspending in fresh incomplete media. On the final wash, the cells were re-suspended in complete media (incomplete media with 5 g/L AlbumaxII), and centrifuged at 1800 g for 3 minutes. This cell sediment was treated as 100% haematocrit.
P. falciparum 3D7 was cultured in erythrocytes at 5% haematocrit in complete media at 37° C. (1% O2, 3% CO2, balance N2). Cultures were split on a weekly basis to achieve a 1% parasitaemia in erythrocites at 5% haematocrit in fresh media. Culture media is replaced by fresh media every other day (2 times during the week).
[formula] where A=% inhibition at bottom; B=% inhibition at top; C=EC50; D=slope; x=inhibitor concentration; and y=% inhibition. […] Assay Procedure—Version 2
On day 1, test compounds were added to assay plates using Echo dispensing technology ([…] and 20 points titration). 50 nL of each compound dilution was added to 50 μL of culture (5% haematocrit, 0.5% parasitaemia) and incubated for 72 h at 37° C. (1% O2, 3% CO2, balance N2). Final concentrations of test compounds ranged from 50,000 nM to 15 nM, in […].
On day 4, 10 μL SYBR green (Invitrogen S7563 supplied as 10,000× concentrate in DMSO) pre-diluted to 3× concentrate with Lysis buffer (20 mM Tris pH 7.9, 5% EDTA, 0.16% w/v, 1.6% TX100 v/v) was added to the cultures and incubated in the dark, overnight, at room temperature.
On day 5, fluorescent signal was measured using a BioTek plate reader (excitation 485 nm, emission 528 nm). All data were processed using IDBS ActivityBase. Raw data were converted into percent inhibition through linear regression by setting the high inhibition control (mefloquine) as 100% and the no inhibition control (DMSO) as 0%. Quality control criteria for passing plates were as follows: Z′>0.5, S:B>3, % CV(no inhibition control)<15. The formula used to calculate Z′ is:
[formula] where μ denotes the mean; σ denotes the standard deviation; p denotes the positive control; and n denotes the negative control.
All EC50 curve fitting was undertaken using the following bi-phasic two site dose response using XLfit model 300 (IDBS):
[formula] where A=100 minus the top of the upper curve 1 and the bottom of lower curve; B=Hill slope; log(C)=IC50 concentration at lower site; log(D)=IC50 concentration at upper site; x=inhibitor concentration; and y=% inhibition.

| IC50 | SMILES |
| --- | --- |
| 815 nM | Cc1cnc(Nc2cccc([C@]3(C)CC(=O)N(C4CCOCC4)C(=N)N3)c2Cl)cn1 [Example 44, (6S)-6-{2-Chloro-3-[(5-methyl-pyrazin-2-yl)amino]phenyl}-2-imino-6-methyl-3-(tetrahydro-pyran-4-yl)hexahydropyrimidin-4-one] |
| 3530 nM | C[C@@]1(c2cccc(Nc3ccc(-c4ccccc4)cc3)c2Cl)CC(=O)N(C2CCOCC2)C(=N)N1 [Example 71, (6S)-6-[2-Chloro-3-(4-phenyl-anilino)phenyl]-2-imino-6-methyl-3-(tetrahydropyran-4-yl)hexahydropyrimidin-4-one] |
| 365 nM | C[C@@]1(c2cccc(Nc3ccc4c(c3)OCO4)c2Cl)CC(=O)N(C2CCOCC2)C(=N)N1 [Example 59, (6S)-6-[3-(1,3-Benzodioxol-5-ylamino)-2-chlorophenyl]-2-imino-6-methyl-3-(tetrahydro-pyran-4-yl)hexahydropyrimidin-4-one] |
| 707 nM | Cn1nnc(-c2ccc(Nc3cccc([C@]4(C)CC(=O)N(C5CCOCC5)C(=N)N4)c3Cl)cn2)n1 [Example 117, (6S)-6-(2-Chloro-3-{[6-(2-methyltetrazol-5-yl)pyridin-3-yl]amino}phenyl)-2-imino-6-methyl-3-(tetrahydropyran-4-yl)hexahydropyrimidin-4-one] |
| 171 nM | COc1cc(C#N)ccc1Nc1cccc([C@]2(C)CC(=O)N(C3CCOCC3)C(=N)N2)c1Cl [Example 47, 4-{2-Chloro-3-[(4S)-2-imino-4-methyl-6-oxo-1-(tetrahydro-pyran-4-yl)hexahydropyrimidin-4-yl]anilino}-3-methoxy-benzonitrile] |
| 509 nM | C[C@@]1(c2cccc(Nc3ccc(C(F)(F)F)nc3)c2Cl)CC(=O)N([C@H]2C[C@@](C)(O)C2)C(=N)N1 [Example 124, (6S)-6-(2-Chloro-3-{[6-(trifluoromethyl)pyridin-3-yl]-amino}phenyl)-3-(3-hydroxy-3-methylcyclobutyl)-2-imino-6-methylhexahydropyrimidin-4-one] |
| 63 nM | C[C@@]1(c2cccc(Nc3ccccc3S(C)(=O)=O)c2Cl)CC(=O)N(C2CCOCC2)C(=N)N1 [Example 43, (6S)-6-[2-Chloro-3-(2-methyl-sulfonylanilino)phenyl]-2-imino-6-methyl-3-(tetrahydro-pyran-4-yl)hexahydropyrimidin-4-one] |
| 3860 nM | Cc1ccc(Nc2cccc([C@]3(C)CC(=O)N([C@@H]4C[C@H]5CC[C@@H](C4)O5)C(=N)N3)c2Cl)cn1 (mixture of isomers) [Example 157, (6S)-6-{2-Chloro-3-[(6-methyl-pyridin-3-yl)amino]phenyl}-2-imino-6-methyl-3-[(1SR,5RS)-8-oxabicyclo[3.2.1]octan-3-yl]-hexahydropyrimidin-4-one] |
| 244 nM | Cc1ccc(Nc2cccc([C@]3(C)CC(=O)N([C@H]4CCO[C@H](C)C4)C(=N)N3)c2Cl)cn1 (single isomer, unassigned; peak 1) [Example 195, (6S)-6-(2-Chloro-3-[(6-methyl-pyridin-3-yl)amino]phenyl}-2-imino-6-methyl-3-[(2R*,4S*)-2-methyltetrahydropyran-4-yl]-hexahydropyrimidin-4-one (Peak 1)] |
| 3970 nM | Cc1ccc(Nc2cccc([C@]3(C)CC(=O)N([C@H]4C[C@](O)(C(C)C)C4)C(=N)N3)c2Cl)cn1 [Example 134, (6S)-6-{2-Chloro-3-[(6-methyl-pyridin-3-yl)amino]phenyl}-3-(3-hydroxy-3-isopropylcyclo-butyl)-2-imino-6-methyl-hexahydropyrimidin-4-one] |
| 325 nM | CN(C)c1ccc(Nc2cccc([C@]3(C)CC(=O)N(C4CCOCC4)C(=N)N3)c2Cl)cn1 [Example 72, (6S)-6-(2-Chloro-3-{[6-(dimethylamino)pyridin-3-yl]-amino}phenyl)-2-imino-6-methyl-3-(tetrahydropyran-4-yl)hexahydropyrimidin-4-one] |
| 18300 nM | C[C@@]1(c2cccc(Nc3ccnc(C(F)(F)F)c3)c2Cl)CC(=O)N([C@H]2C[C@@](C)(O)C2)C(=N)N1 [Example 131, (6S)-6-(2-Chloro-3-{[2-(trifluoromethyl)pyridin-4-yl]amino}phenyl)-3-(3-hydroxy-3-methylcyclobutyl)-2-imino-6-methylhexahydropyrimidin-4-one] |
| 131 nM | C[C@@]1(c2cccc(Nc3ccc(F)cc3S(C)(=O)=O)c2Cl)CC(=O)N(C2CCOCC2)C(=N)N1 [Example 104, (6S)-6-{2-Chloro-3-[4-fluoro-2-(methylsulfonyl)anilino]-phenyl}-2-imino-6-methyl-3-(tetrahydropyran-4-yl)-hexahydropyrimidin-4-one] |
| 1420 nM | Cn1cc2cc(Nc3cccc([C@]4(C)CC(=O)N(C5CCOCC5)C(=N)N4)c3Cl)ccc2n1 [Example 78, (6S)-6-{2-Chloro-3-[(2-methyl-indazol-5-yl)amino]phenyl}-2-imino-6-methyl-3-(tetrahydro-pyran-4-yl)hexahydropyrimidin-4-one] |
| 884 nM | C[C@@]1(c2cccc(Nc3ccc(C4CC4)nc3)c2Cl)CC(=O)N([C@H]2C[C@](O)(C(F)(F)F)C2)C(=N)N1 [Example 154, (6S)-6-{2-Chloro-3-[(6-cyclo-propylpyridin-3-yl)amino]-phenyl}-3-[3-hydroxy-3-(trifluoromethyl)cyclobutyl]-2-imino-6-methylhexahydro-pyrimidin-4-one (cis isomer)] |
| 582 nM | C[C@@]1(c2cccc(Nc3ccc(C#N)cn3)c2Cl)CC(=O)N(C2CCOCC2)C(=N)N1 [Example 183, 6-{2-Chloro-3-[(4S)-2-imino-4-methyl-6-oxo-1-(tetrahydro-pyran-4-yl)hexahydropyrimidin-4-yl]anilino}pyridine-3-carbo-nitrile] |
| 6210 nM | CC1(C)CC(N2C(=N)N[C@](C)(c3cccc(Nc4ccn(C5CC5)c(=O)c4)c3Cl)CC2=O)CCO1 (single isomer, unassigned) [Example 205, (6S)-6-{2-Chloro-3-[(1-cyclo-propyl-2-oxopyridin-4-yl)-amino]phenyl}-3-[(4R*)-2,2-dimethyltetrahydropyran-4-yl]-2-imino-6-methylhexahydro-pyrimidin-4-one] |
| 269 nM | C[C@@]1(c2cccc(Nc3ccc(OC(F)F)nc3)c2Cl)CC(=O)N(C2CCOCC2)C(=N)N1 [Example 42, (6S)-6-(2-Chloro-3-{[6-(difluoromethoxy)pyridin-3-yl]-amino}phenyl)-2-imino-6-methyl-3-(tetrahydropyran-4-yl)hexahydropyrimidin-4-one] |
| 562 nM | C[C@@]1(c2cccc(Nc3ccc(C#N)cc3OC(F)F)c2Cl)CC(=O)N([C@H]2C[C@@](C)(O)C2)C(=N)N1 [Example 133, 4-{2-Chloro-3-[(4S)-1-(3-hydroxy-3-methylcyclobutyl)-2-imino-4-methyl-6-oxo-hexahydropyrimidin-4-yl]-anilino}-3-(difluoromethoxy)-benzonitrile] |
| 10400 nM | Cn1ccc(Nc2cccc([C@]3(C)CC(=O)N(C4CCOCC4)C(=N)N3)c2Cl)cc1=O [Example 73, (6S)-6-{2-Chloro-3-[(1-methyl-2-oxopyridin-4-yl)amino]-phenyl}-2-imino-6-methyl-3-(tetrahydropyran-4-yl)-hexahydropyrimidin-4-one] |
| 2580 nM | CC(C)(C)c1ccc(Nc2cccc([C@]3(C)CC(=O)N(C4CCOCC4)C(=N)N3)c2Cl)cc1 [Example 67, (6S)-6-[3-(4-tert-Butylanilino)-2-chlorophenyl]-2-imino-6-methyl-3-(tetrahydropyran-4-yl)hexahydropyrimidin-4-one] |
| 112 nM | C[C@@H]1C[C@H](N2C(=N)N[C@](C)(c3cccc(Nc4ccc(OCC(F)(F)F)nn4)c3Cl)CC2=O)CCO1 (relative stereo) [Example 202, (6S)-6-(2-Chloro-3-{[6-(2,2,2-trifluoroethoxy)pyridazin-3-yl]-amino}phenyl)-2-imino-6-methyl-3-[(2R*,4R*)-2-methyl-tetrahydropyran-4-yl]-hexahydropyrimidin-4-one] |
